Measured values from patent US8859578B2, “Natural product derivatives with antiprotozoal activity” (Radix Pharmaceuticals, Inc., priority 2012, dated 2014).
Values joined by “and” are separate entries in the source; they are usually repeats but may differ in a detail not shown here. Equal entries are not always repeated. Where two headings read alike, the source gives them in different places.

How the values were obtained:
P. falciparum K1 = assay: In vitro blood stage antimalarial activity, [3H]hypoxanthine uptake; format: cell-based; details: Plasmodium falciparum
Description: (§1) In Vitro Blood Stage Antimalarial Efficacy Evaluation. New compounds were tested against a panel of strains of P. falciparum.
(§2) Test compounds were initially dissolved in DMSO and diluted 400 fold in RPMI 1640 culture medium supplemented with 25 mM Hepes, 32 mM NaHCO3 and 10% Albumax I (Gibco, NY). These solutions were subsequently serially diluted two-fold with a Beckman Biomek® 1000 Robot (Fullerton, Calif.) over 11 different concentrations. The parasites were exposed to serial dilutions of each compound for 48 hrs and incubated at 37° C. with 5% O2, 5% CO2 and 90% N2 prior to the addition of [^3H]hypoxanthine. After a further incubation of 18 hrs, parasite DNA was harvested from each microtiter well using Packard Filtermate™ 196 Harvester (Meriden, Conn.) onto glass filters. Uptake of [^3H]hypoxanthine was measured with a Packard TopCount Liquid Scintillation Counter (Packard Instrument Co.).

rodent P. berghei = assay: Antimalarial potency (MCD, MCureD) and therapeutic indices, rodent P. berghei; format: in vivo
Description: Antimalarial potency was measured by determination of the MCD (minimum clearance dose), a commonly used efficacy measurement. The primary therapeutic indices, which were obtained by using the MCDs as the effective parameters, were calculated. A secondary therapeutic indices measure of antimalarial potency was determined by use of the dose for the MCureD (minimum curative dose).

Plasmodium cynomolgi = assay: Radical curative activity in relapsed Rhesus monkeys; format: in vivo; details: for Monkeys cured: co-administered with chloroquine, two monkeys; for Days post-treatment (to relapse): with CQ 10 mg/kg/day for 7 days, one value per monkey
Description: Compounds with antihypnozoite activity will delay the relapse or radically cure the infection. […] Relapse was expected in the control group. Relapse in the treated group indicates failure of the test compounds. […] Relapse in experimental animals and the second relapse of the control monkeys were treated with the standard 7 day oral CQ and primaquine (1.78 mg base/kg).

P. falciparum TM4 = assay: In vitro blood stage antimalarial activity, [3H]hypoxanthine uptake; format: cell-based; details: Plasmodium falciparum
Description: as §1, §2

P. falciparum PH3 = assay: as above; format: cell-based; details: Plasmodium falciparum
Description: as §1, §2

P. falciparum TM6 = assay: as above; format: cell-based; details: Plasmodium falciparum
Description: as §1, §2

P. falciparum DD2 = assay: as above; format: cell-based; details: Plasmodium falciparum
Description: as §1, §2

P. falciparum 3D7 = assay: as above; format: cell-based; details: Plasmodium falciparum
Description: as §1, §2

P. falciparum V1S = assay: microbe, parasite or virus in culture; format: cell-based; details: Plasmodium falciparum
Description: as §1, §2

[1] = tested on: Liver Stage of P. yoelii yoelii; assay: In vitro liver-stage antimalarial efficacy; format: cell-based; details: Plasmodium yoelii
Description: In Vitro Liver-Stage Antimalarial Efficacy Evaluation. Any new desirable antimalarial drug should be broad spectrum: it should be active against both the blood stage and the liver stage of the parasite. New compounds were assessed on the Plasmodium yoelii liver stage in vitro. The liver stage of P. yoelii is a parasite of rodent extensively used as an experimental model for studying the initial phase of the malaria infection.

in vivo = details: Sprague-Dawley, rat, po
[2] = tested on: Plasmodium cynomolgi sporozoite; assay: Causal prophylactic activity in P. cynomolgi sporozoite-challenged Rhesus monkeys; format: in vivo; details: PO 15 mg/kg, 1 daily for 3 days
Excerpt: Two monkeys were used in each test group. The control animals developed parasitemia in about 10 days after inoculation of about 1×10^6 P. cynomolgi sporozoites harvested from Anopheles dirus. All the monkeys received three treatments, once a day for three consecutive days beginning a day before (−1, 0, +1) the sporozoites challenge. The control monkeys (group 1) received HECT and the experimental animals received testing compound by using 8 Fr., 15-in. long nasogastric tubes.

[3] = tested on: chloroquine-resistant FVO strain of P. falciparum; assay: Efficacy against blood stages of P. falciparum in Aotus monkeys; format: in vivo; details: oral for 3 days
Excerpt: In Vivo Efficacy Studies in Aotus Monkey Model. The monkeys selected for the study had active infections of the chloroquine-resistant FVO strain of P. falciparum.
Malaria-naive Panamanian owl monkeys (Aotus lemurinus lemurinus) were used as hosts for chioroquine-resistant P. falciparum. The chloroquine-resistant Vietnam Smith strain was used in the initial experiments. In subsequent studies, a recrudescent isolate from a Vietnam Smith strain infected Aotus monkey treated with chloroquine was used.
The inoculum size produced a parasitemia of at least 5×10^3/mm^3 by the fifth day postinoculation, at which time treatment was begun. Stock solutions of water-soluble drug were prepared at appropriate concentrations and maintained at 4° C. during the course of treatment. A suspension of water-insoluble drugs was prepared in 0.3% methylcellulose just prior to use. All drugs were administered by gastric intubation in a volume of 7.0 ml, followed by a 7.0-mi rinse with either water or 0.3% methylcellulose. Test drug was given orally for either three or seven consecutive days. […]
Giemsa-stained blood smears were prepared from all animals and examined daily beginning the day after inoculation until parasitemia was cleared and for at least seven days thereafter. […] Ten or less parasites on a thick blood film were recorded as <10. Parasitemia was enumerated and expressed as number of parasites/mm^3. […]

Plasmodium berghei = assay: Oral prophylactic test in mice; format: in vivo

CCN(CC)Cc1cc(Nc2ccnc3cc(Cl)ccc23)ccc1O [Amodiaquine]
IC50 (P. falciparum K1; read-out: IC50): 21.2 ± 2.1 nM

C[C@H]1[C@H](OC(=O)CCC(=O)O)O[C@@H]2O[C@@]3(C)CC[C@H]4[C@H](C)CC[C@@H]1[C@@]24OO3 [Artesunate]
MCureD (minimum curative dose) (rodent P. berghei; route of administration iv): 25.4 mg/kg

CCN(CC)CCCC(C)Nc1ccnc2cc(Cl)ccc12 (stereo not drawn) [Chloroquine, reference compound]
Results (radical curative test) (Plasmodium cynomolgi; Rhesus monkeys, chloroquine alone, 10 mg/kg/day for 7 days): relapse
MCureD (minimum curative dose) (rodent P. berghei; administered orally): None
IC50 (P. falciparum TM4): 115 ± 12.7 nM
IC50 (P. falciparum PH3): 33.4 ± 9.1 nM
IC50 (P. falciparum TM6): 96.4 ± 6.9 nM
IC50 (P. falciparum DD2): 45.8 ± 10.2 nM
IC50 (P. falciparum K1): 166 ± 19.3 nM
IC50 (P. falciparum 3D7): 9.7 ± 3.4 nM
IC50 (P. falciparum V1S): 152 ± 14.1 nM

COc1cc2c(c3cc4c(nc13)C=C[C@@]1([C@H]3CC([C@H](O)[C@@H](N)C(C)C)OCO3)C=CCOC41)[C@@H]1OCOC[C@]1(C)N2 (stereo partly drawn) [Formula A]
Monkeys cured (Plasmodium cynomolgi; 15 mg/kg/day level): one out of two monkeys
Monkeys cured (Plasmodium cynomolgi; 30 mg/kg/day level): both monkeys
Days post-treatment (to relapse) (Plasmodium cynomolgi; Rhesus monkeys, PO 15 mg/kg 1 daily for 3 days): 44 days and no relapse
Days post-treatment (to relapse) (Plasmodium cynomolgi; Rhesus monkeys, PO 30 mg/kg 1 daily for 3 days): no relapse
MCureD (minimum curative dose) (rodent P. berghei; administered orally): 12.6 mg/kg
IC50 [1]: 6.2 nM
NOAEL at 2 weeks (in vivo): > 100 mg/kg/day
MTD at 2 weeks (in vivo; MTD (maximum tolerated dose)): > 500 mg/kg
Delay of patency compared with untreated control monkeys [2]: delayed patency of treated monkeys more than a month
Parasite patency (days postinoculation) ([2]; one value per monkey, control 8 days, 15 mg/kg): 42 days and 60 days
dosage needed to cure 50% of animals [3]: 2 mg/kg/day
dosage needed to cure 100% of animals [3]: 8 mg/kg/day
Mice infected and treated/Mice surviving day 60 (Plasmodium berghei; day of treatment 1, dose 0.5 mg/kg oral): 5/5
Mice infected and treated/Mice surviving day 60 (Plasmodium berghei; day of treatment 1, dose 2 mg/kg oral): 5/5
Mice infected and treated/Mice surviving day 60 (Plasmodium berghei; day of treatment 1, dose 8 mg/kg oral): 5/5
Mice infected and treated/Mice surviving day 60 (Plasmodium berghei; day of treatment 1, dose 32 mg/kg oral): 5/5
Mice infected and treated/Mice surviving day 60 (Plasmodium berghei; day of treatment 2, dose 0.5 mg/kg oral): 5/5
Mice infected and treated/Mice surviving day 60 (Plasmodium berghei; day of treatment 2, dose 2 mg/kg oral): 5/5
Mice infected and treated/Mice surviving day 60 (Plasmodium berghei; day of treatment 2, dose 8 mg/kg oral): 5/5
Mice infected and treated/Mice surviving day 60 (Plasmodium berghei; day of treatment 2, dose 32 mg/kg oral): 5/5
Mice infected and treated/Mice surviving day 60 (Plasmodium berghei; day of treatment −1, dose 0.5 mg/kg oral): 5/5
Mice infected and treated/Mice surviving day 60 (Plasmodium berghei; day of treatment −1, dose 2 mg/kg oral): 5/5
Mice infected and treated/Mice surviving day 60 (Plasmodium berghei; day of treatment −1, dose 8 mg/kg oral): 5/5
Mice infected and treated/Mice surviving day 60 (Plasmodium berghei; day of treatment −1, dose 32 mg/kg oral): 5/5
Mice infected and treated/Mice surviving day 60 (Plasmodium berghei; day of treatment −2, dose 0.5 mg/kg oral): 5/5
Mice infected and treated/Mice surviving day 60 (Plasmodium berghei; day of treatment −2, dose 2 mg/kg oral): 5/5
Mice infected and treated/Mice surviving day 60 (Plasmodium berghei; day of treatment −2, dose 8 mg/kg oral): 5/5
Mice infected and treated/Mice surviving day 60 (Plasmodium berghei; day of treatment −2, dose 32 mg/kg oral): 5/5
Protection from malaria (oral prophylactic activity) (Plasmodium berghei; mice, single dose of 0.5 mg/kg within 2 days pre-infection through 2 days post-infection): completely protected from malaria
IC50 (P. falciparum TM4; read-out: IC50): 0.41 ± 0.09 nM
IC50 (P. falciparum PH3; read-out: IC50): 0.27 ± 0.05 nM
IC50 (P. falciparum TM6; read-out: IC50): 0.27 ± 0.05 nM
IC50 (P. falciparum DD2; read-out: IC50): 0.17 ± 0.04 nM
IC50 (P. falciparum K1; read-out: IC50): 0.35 ± 0.06 nM
IC50 (P. falciparum 3D7; read-out: IC50): 0.12 ± 0.03 nM
IC50 (P. falciparum V1S): 0.21 ± 0.03 nM

COc1cc(NC(C)CCCN)c2ncccc2c1 (stereo not drawn) [Primaquine, reference compound]
IC50 [1]: 76 nM
